Assay results: paper PMC7016953 (Cells, 2020)

Assays:
TRPC6 = system: T1, TRPC6; assay: Whole-cell patch-clamp recordings in HEK TRPC6-YFP cells; format: cell-based, human; settings: 100 µM artemisinin
T1 construct: expressed in transfected cells
Experimental: (§1) The recordings of TRPC3, TRPC6, or TRPC7 membrane currents in HEK293 or PC12 cells were realized by using a Multiclamp 700B amplifier with a Digidata 1440A digitizer controlled by the PClamp 10 software (all Molecular Devices, Sunnyvale, CA, U.S.A.). Recordings were obtained at room temperature either in the whole-cell or in an outside-out configuration as indicated. Cells were seeded as described above, but at lower density, mounted in a chamber (Warner Instruments, Hamden, CT; U.S.A.), placed onto the stage of an inverted microscope, and perfused with required solution. The standard extracellular solution contained 140 mM NaCl, 5 mM CsCl, 2 mM MgCl2, 1 mM CaCl2, 10 mM HEPES, and 0.035% BSA adjusted to pH 7.4 with NaOH. The composition of standard intracellular solution was 140 mM CsCl, 1 mM MgCl2, 5 mM EGTA, and 10 mM HEPES adjusted to pH 7.25 with CsOH; the osmolarity was 295 mOsm l^−1. In outside-out measurements, the pipette solution contained 5 mM EGTA and 1.1 mM CaCl2 to achieve a calculated free Ca^2+ concentration of 100 nM.
(§2) Patch pipettes were pulled from borosilicate glass capillaries BG150F-8P (Science Products, Hofheim, Germany) with a PIP6 pipette puller (HEKA Elektronik, Lambrecht, Germany). […] In all whole-cell measurements, the series resistance was lower than 13 MΩ, and compensated by 70%. […]

TRPC7 = system: T2, TRPC7; assay: Whole-cell patch-clamp recordings in HEK TRPC7-YFP cells; format: cell-based, human; settings: 100 µM artemisinin
T2 construct: expressed in transfected cells
Experimental: as §1, §2

C[C@@H]1CC[C@H]2[C@@H](C)C(=O)O[C@@H]3O[C@@]4(C)CC[C@@H]1[C@]32OO4 [artemisinin]
ionic currents in TRPC6-expressing HEK cells (TRPC6): remained unaffected
ionic currents in TRPC7-expressing HEK cells (TRPC7): only weakly enhanced
